Legend:
[1] = test system: BV2 cells; assay: Kifunensine treatment, WGA-FITC staining of cell surface carbohydrates; type: cell-based, mouse; settings: 1 μg/ml kifunensine for at least 48 hours
Experimental: (§1) To determine the effect of glycans on MNoV binding, parental BV2 cells, ΔCD300lf BV2 clone 1 cells complemented with an empty lentivirus, and ΔCD300lf BV2 clone 1 cells complemented with CD300lf were cultured in the presence of 1 μg/ml of kifunensine (Santa Cruz Biotechnology) for at least 48 hours prior to use. Kifunensine activity was determined by staining cells with FITC-conjugated wheat germ agglutinin (WGA) at 1 μg/ml final concentration (Sigma Aldrich). The reduction in glycosylation was determined by comparing the mean fluorescence intensity (MFI) with and without kifunensine treatment. WGA binding was determined at the time of each binding assay.

[2] = test system: MNoV^CW3; assay: MNoV binding assay to BV2 cells (bound genomes by qPCR); type: cell-based, murine norovirus; settings: wild type or CD300lf-mutant BV2 cells, 1 μg/ml kifunensine
Experimental: MNoV^CW3 quantitiatve PCR (qPCR) was performed as previously described. Briefly, 5 μl of extracted viral RNA was used for cDNA synthesis using random hexamers and ImProm Reverse Transcriptase (Promega, Madison, Wis.) in 20 μl total volume. TaqMan qPCR was performed in triplicate on each sample and standard with forward primer SEQ ID NO:20 (5′ […] 3′), reverse primer SEQ ID NO:21 (5′ GCGCTGCGCCATCACTC 3′), and probe.
MNoV^CW3 binding to BV2 cells was performed for 1 hour at 4° C. in 0.5 ml complete growth media. sCD300lf was incubated with MNoV^CW3 for 30 minutes at room temperature prior to addition to cells. α-CD300lf was incubated with cells for 30 minutes at 4° C. prior to the addition of MNoV^CW3. BV2 cells were used at final concentration of 2×10^6 cells/ml, and MNoV^CW3 was used at a final concentration of 1.6×10^9 copies/ml (2.5×10^6 PFU/ml). Cells were centrifuged at 500 g for 5 min at 4° C. to remove unbound virus. Cells were washed with four 1.0 ml washes with PBS containing 2.5% FBS and 2 mM EDTA. The cell pellet was resuspended in 100 μl PBS, and RNA was extracted with the ZR Viral RNA kit (Zymo Research) according to manufacturer instructions. qPCR was performed as described above. Binding experiments were done in triplicate in each of at least three independent experiments. A condition containing virus but no cells was used to determine assay background.
as §1

O=C1N[C@@H]2[C@@H](O)[C@@H](O)[C@H](O)[C@@H](CO)N2C1=O [kifunensine]
Cell surface carbohydrates (WGA-FITC binding, MFI) [1]: significantly reduced cell surface carbohydrates | MNoV^CW3 binding to kifunensine treated cells [2]: did not significantly alter MNoV^CW3 binding
